{"source": "patent US20220242879A1", "about": "“FUSED HETEROCYCLE DERIVATIVES” (Janssen Sciences Ireland Unlimited Company, priority 2019, published 2022)", "key": {"[1]": {"tested_on": "HBV", "experiment": "Anti-HBV activity, HepG2.117 cell line, intracellular HBV DNA by real-time PCR", "assay_type": "cell-based, Hepatitis B virus", "conditions": "Hepatitis B virus, read-out: HBV-AVE-HepG2.117 EC50", "protocol": "The anti HBV activity was measured using the HepG2.117 cell line, a stable, inducibly HBV producing cell line, which replicates HBV in the absence of doxicycline (Tet-off system). The HepG2 cell line is available from ATCC® under number HB-8065. Transfection of the HepG2 cell line can be as described in Sun and Nassal 2006 Journal of Hepatology 45 (2006) 636-645 “Stable HepG2- and Huh7-based human hepatoma cell lines for efficient regulated expression of infectious hepatitis B virus”.\nFor the antiviral assay, HBV replication was induced, followed by a treatment with serially diluted compound in 96-well plates. After 3 days of treatment, the antiviral activity was determined by, quantification of intracellular HBV DNA using real-time PCR and an HBV specific primer set and probe."}, "[2]": {"experiment": "Cytotoxicity, ATPlite Luminescence Assay", "assay_type": "cell-based, human", "conditions": "human, mean value, cells incubated for 3 days, viability by ATPlite, read-out: TOX-HepC2.117 CC50", "protocol": "Cytotoxicity of the compounds was tested using HepG2 or HepG2.117 cells, incubated for 3 days in the presence of compounds. The viability of the cells was assessed using the PERKIN ELMER ATPlite Luminescence Assay System.”"}, "[3]": {"conditions": "72 h, mean value, HepG2.117 cells, 3 days of treatment, intracellular HBV DNA"}}, "note": "Where two headings read alike, the source gives them in different places.", "data": [{"compound": "CNC(=O)C1(O)Cc2conc2-c2c3c(nn2C1)CCN(C(=O)c1ccc(Cl)c(Cl)c1)C3", "note": "(stereo not drawn) [Compound 22, 11-(3,4-Dichlorobenzoyl)-S-hydroxy-N-methyl-5,6,9,10,11,12-hexahydro-4H-[1,2]oxazolo-[3,4-c]pyrido[4′,3′:3,4]pyrazolo[1,5-a]azepine-5-carboxamide]", "values": [{"measurement": "EC50", "setting": "[1]; [3]", "value": 130, "unit": "nM"}, {"measurement": "CC50 at 3 days", "setting": "[2]; HepG2.117 cells", "value": "> 50000", "unit": "nM"}]}, {"compound": "Cc1[nH]nc2c1CCn1nc3c(c1-2)CN(C(=O)c1ccc(Cl)c(Cl)c1)CC3", "note": "[Compound 7, (3,4-Dichlorophenyl)(3-methyl-2,4,5,8,9,11-hexahydro-10H-pyrazolo[3,4-c]pyrazolo-[1,5-a:4,3-c′]dipyridin-10-yl)methanone]", "values": [{"measurement": "EC50", "setting": "[1]; [3]", "value": 1290, "unit": "nM"}, {"measurement": "CC50 at 3 days", "setting": "[2]; HepG2.117 cells", "value": "> 50000", "unit": "nM"}]}, {"compound": "CCc1onc2c1CCn1nc3c(c1-2)CN(C(=O)c1ccc(Cl)c(Cl)c1)CC3", "note": "[Compound 3, (3,4-dichlorophenyl)(3-ethyl-4,5,8,9-tetrahydro[1,2]oxazolo[3,4-c]pyrazolo[1,5-a:4,3-c′]dipyridin-10(11H)-yl)methanone]", "values": [{"measurement": "EC50", "setting": "[1]; [3]", "value": 1440, "unit": "nM"}, {"measurement": "CC50 at 3 days", "setting": "[2]; HepG2.117 cells", "value": 47000, "unit": "nM"}]}, {"compound": "O=C(NC1CC1)C1Cc2conc2-c2c3c(nn2C1)CCN(C(=O)c1ccc(Cl)c(Cl)c1)C3", "note": "(stereo not drawn) [Compound 33, N-Cyclopropyl-11-(3,4-dichlorobenzoyl)-5,6,9,10,11,12-hexahydro-4H-[1,2]oxazolo[3,4-c]-pyrido[4′,3′:3,4]pyrazolo[1,5-a]azepine-5-carboxamide]", "values": [{"measurement": "EC50", "setting": "[1]; HepG2.117, 72 h", "value": 154, "unit": "nM"}, {"measurement": "CC50 at 3 days", "setting": "[2]", "value": "> 50000", "unit": "nM"}]}, {"compound": "CNC(=O)[C@@H]1Cc2conc2-c2c3c(nn2C1)CCN(C(=O)c1ccc(Cl)c(Cl)c1)[C@@H]3C", "note": "(single isomer, unassigned) [Compound 49]", "values": [{"measurement": "EC50", "setting": "[1]; [3]", "value": 4640, "unit": "nM"}, {"measurement": "CC50 at 3 days", "setting": "[2]; HepG2.117 cells", "value": "> 50000", "unit": "nM"}]}, {"compound": "O=C(c1ccc(Cl)c(Cl)c1)N1CCc2nn3c(c2C1)-c1noc(-c2ccccc2)c1CC3", "note": "[Compound 4, (3,4-Dichlorophenyl)(3-phenyl-4,5,8,9-tetrahydro[1,2]oxazolo[3,4-c]pyrazolo-[1,5-a:4,3-c′]dipyridin-10(11H)-yl)methanone]", "values": [{"measurement": "EC50", "setting": "[1]; [3]", "value": "> 10000", "unit": "nM"}, {"measurement": "CC50 at 3 days", "setting": "[2]; HepG2.117 cells", "value": "> 10000", "unit": "nM"}]}, {"compound": "CNC(=O)[C@H]1Cc2conc2-c2c3c(nn2C1)CCN(C(=O)c1ccc(Cl)c(Cl)c1)C3", "note": "(single isomer, unassigned) [Compound 31, (5*S)-11-(3,4-Dichlorobenzoyl)-N-methyl-5,6,9,10,11,12-hexahydro-4H-[1,2]oxazolo[3,4-c]pyrido[4′,3′:3,4]pyrazolo[1,5-a]azepine-5-carboxamide]", "values": [{"measurement": "EC50", "setting": "[1]; [3]", "value": 47, "unit": "nM"}, {"measurement": "CC50 at 3 days", "setting": "[2]; HepG2.117 cells", "value": "> 50000", "unit": "nM"}]}, {"compound": "O=C(c1ccc(Cl)c(Cl)c1)N1CCc2nn3c(c2C1)-c1n[nH]cc1CCC3", "note": "[Compound 41, (3,4-Dichlorophenyl)(2,5,6,9,10,12-hexahydropyrazolo[3,4-c]pyrido[4′,3′,3,4]pyrazolo[1,5-a]-azepin-11(4H)-yl)methanone]", "values": [{"measurement": "EC50", "setting": "[1]; [3]", "value": 749, "unit": "nM"}, {"measurement": "CC50 at 3 days", "setting": "[2]; HepG2.117 cells", "value": 25600, "unit": "nM"}]}, {"compound": "Cn1cc2c(n1)-c1c3c(nn1CC2)CCN(C(=O)c1ccc(Cl)c(Cl)c1)C3", "note": "[Compound 8, (3,4-Dichlorophenyl)(2-methyl-2,4,5,8,9,11-hexahydro-10H-pyrazolo[3,4-c]pyrazolo-[1,5-a:4,3-c]dipyridin-10-yl)methanone]", "values": [{"measurement": "EC50", "setting": "[1]; [3]", "value": 2550, "unit": "nM"}, {"measurement": "CC50 at 3 days", "setting": "[2]; HepG2.117 cells", "value": "> 50000", "unit": "nM"}]}, {"compound": "Cc1onc2c1CCCn1nc3c(c1-2)CN(C(=O)c1ccc(Cl)c(Cl)c1)CC3", "note": "[Compound 12, (3,4-Dichlorophenyl)(3-methyl-5,6,9,10-tetrahydro-4H-[1,2]oxazolo[3,4-c]pyrido[4′,3′:3,4]-pyrazolo[1,5-a]azepin-11(12H)-yl)methanone]", "values": [{"measurement": "EC50", "setting": "[1]; [3]", "value": 835, "unit": "nM"}, {"measurement": "CC50 at 3 days", "setting": "[2]; HepG2.117 cells", "value": 31100, "unit": "nM"}]}, {"compound": "O=C(c1cnc(Cl)c(Cl)c1)N1CCc2nn3c(c2C1)-c1nocc1CC(O)C3", "note": "(stereo not drawn) [Compound 53]", "values": [{"measurement": "EC50", "setting": "[1]; [3]", "value": "> 10000", "unit": "nM"}, {"measurement": "CC50 at 3 days", "setting": "[2]; HepG2.117 cells", "value": "> 50000", "unit": "nM"}]}, {"compound": "O=C(c1ccc(Cl)c(Cl)c1)N1CCc2nn3c(c2C1)-c1noc(C(F)(F)F)c1CCC3", "note": "[Compound 16, (3,4-Dichlorophenyl)[3-(trifluoromethyl)-5,6,9,10-tetrahydro-4H-[1,2]oxazolo[3,4-c]pyrido[4′,3′:3,4]pyrazolo[1,5-a]azepin-11(12H)-yl]methanone]", "values": [{"measurement": "EC50", "setting": "[1]; [3]", "value": 1620, "unit": "nM"}, {"measurement": "CC50 at 3 days", "setting": "[2]; HepG2.117 cells", "value": "> 50000", "unit": "nM"}]}, {"compound": "Cc1onc2c1CCCn1nc3c(c1-2)CN(C(=O)c1ccc(Cl)c(Cl)c1)[C@H](C)C3", "note": "[Compound 15, (3,4-dichlorophenyl)[(10R)-3,10-dimethyl-5,6,9,10-tetrahydro-4H-[1,2]oxazolo-[3,4-c]pyrido[4′,3′:3,4]pyrazolo[1,5-a]azepin-11(12H)-yl]methanone]", "values": [{"measurement": "EC50", "setting": "[1]; [3]", "value": 934, "unit": "nM"}, {"measurement": "CC50 at 3 days", "setting": "[2]; HepG2.117 cells", "value": "> 43500", "unit": "nM"}]}, {"compound": "O=C(c1ccc(Cl)c(Cl)c1)N1CCc2nn3c(c2C1)-c1oncc1CCC3", "note": "[Compound 39, (3,4-Dichlorophenyl)(4,5,6,9,10,12-hexahydro-11H-[1,2]oxazolo[5,4-c]pyrido[4′,3′:3,4]-pyrazolo[1,5-a]azepin-11-yl)methanone]", "values": [{"measurement": "EC50", "setting": "[1]; [3]", "value": 1340, "unit": "nM"}, {"measurement": "CC50 at 3 days", "setting": "[2]; HepG2.117 cells", "value": 43600, "unit": "nM"}]}, {"compound": "C=C1Cc2conc2-c2c3c(nn2C1)CCN(C(=O)c1ccc(Cl)c(Cl)c1)C3", "note": "[Compound 17, (3,4-Dichlorophenyl)(5-methylidene-5,6,9,10-tetrahydro-4H-[1.2]oxazolo[3,4-c]pyrido-[4′,3′:3,4]pyrazolo[1,5-a]azepin-11(12H)-yl)methanone]", "values": [{"measurement": "EC50", "setting": "[1]; [3]", "value": 248, "unit": "nM"}, {"measurement": "CC50 at 3 days", "setting": "[2]; HepG2.117 cells", "value": 24700, "unit": "nM"}]}, {"compound": "O=C(c1ccc(Cl)c(Cl)c1)N1CCc2nn3c(c2C1)-c1nocc1CC(O)(CO)C3", "note": "(stereo not drawn) [Compound 18, (3,4-Dichlorophenyl)[5-hydroxy-5-(hydroxymethyl)-5,6,9,10-tetrahydro-4H-[1,2]oxazolo-[3,4-c]pyrido[4′,3′:3,4]pyrazolo[1,5-a]azepin-11(12H)-yl]methanone]", "values": [{"measurement": "EC50", "setting": "[1]; [3]", "value": 1050, "unit": "nM"}, {"measurement": "CC50 at 3 days", "setting": "[2]; HepG2.117 cells", "value": "> 50000", "unit": "nM"}]}, {"compound": "CNC(=O)[C@@H]1Cc2conc2-c2c3c(nn2C1)CCN(C(=O)c1ccc(Cl)c(Cl)c1)C3", "note": "(single isomer, unassigned) [Compound 30, (5′R)-11-(3,4-Dichlorobenzoyl)-N-methyl-5,6,9,10,11,12-hexahydro-4H-[1,2]oxazolo[3,4-c]-pyrido[4′,3′:3,4]pyrazolo[1,5-a]azepine-5-carboxamide]", "values": [{"measurement": "EC50", "setting": "[1]; [3]", "value": 181, "unit": "nM"}, {"measurement": "CC50 at 3 days", "setting": "[2]; HepG2.117 cells", "value": "> 50000", "unit": "nM"}]}, {"compound": "CNC(=O)[C@H]1Cc2conc2-c2c3c(nn2C1)C[C@@H](C)N(C(=O)c1ccc(Cl)c(Cl)c1)C3", "note": "(single isomer, unassigned) [Compound 48]", "values": [{"measurement": "EC50", "setting": "[1]; [3]", "value": 19, "unit": "nM"}, {"measurement": "CC50 at 3 days", "setting": "[2]; HepG2.117 cells", "value": "> 50000", "unit": "nM"}]}, {"compound": "O=C(Nc1ccccc1)C1Cc2conc2-c2c3c(nn2C1)CCN(C(=O)c1ccc(Cl)c(Cl)c1)C3", "note": "(stereo not drawn) [Compound 37, 11-(3,4-Dichlorobenzoyl)-N-phenyl-5,6,9,10,11,12-hexahydro-4H-[1,2]oxazolo[3,4-c]-pyrido[4′,3′:3,4]pyrazolo[1,5-a]azepine-5-carboxamide]", "values": [{"measurement": "EC50", "setting": "[1]; HepG2.117, 72 h", "value": 343, "unit": "nM"}, {"measurement": "CC50 at 3 days", "setting": "[2]", "value": "> 50000", "unit": "nM"}]}, {"compound": "O=C(c1ccc(Cl)c(Cl)c1)N1CCc2nn3c(c2C1)-c1nocc1CCC3", "note": "[Compound 11]", "values": [{"measurement": "EC50", "setting": "[1]; [3]", "value": 300, "unit": "nM"}, {"measurement": "CC50 at 3 days", "setting": "[2]; HepG2.117 cells", "value": "> 46200", "unit": "nM"}]}, {"compound": "O=C(c1ccc(Cl)c(Cl)c1)N1CCc2nn3c(c2C1)-c1nocc1CC(O)C3", "note": "(stereo not drawn) [Compound 19, (3,4-Dichlorophenyl)(5-hydroxy-5,6,9,10-tetrahydro-4H-isoxazolo[3,4-c]pyrido[4′,3′:3,4]pyrazolo[1,5-a]azepin-11(12H)-yl)methanone]", "values": [{"measurement": "EC50", "setting": "[1]; [3]", "value": 263, "unit": "nM"}, {"measurement": "CC50 at 3 days", "setting": "[2]; HepG2.117 cells", "value": "> 50000", "unit": "nM"}]}]}
